This note sets out measurements from patent US20210251991A1, “SUBSTITUTED 2,2'-BIPYRIMIDINYL COMPOUNDS, ANALOGUES THEREOF, AND METHODS USING SAME” (priority 2018, published 2021).

In this test the test system is HBsAg in HepG2.2.15 cells. Put plainly: HBsAg assay: inhibition of HBsAg in HepG2.2.15 cells (chemiluminescence immunoassay of supernatant). It is filed as cell-based, hepatitis B virus. The following applies: read-out: sAg EC50; HepG2.2.15 cells, supernatant collected at day 6 after exposure, HBsAg CLIA. On the procedure:
Inhibition of HBsAg was determined in HepG2.2.15 cells. Cells were maintained in culture medium containing 10% fetal calf serum, […], Glutamine, penicillin/streptomycin. Cells were seeded in 96-well collagen-coated plate at a density of 30,000 cells/well. Serially diluted compounds were added to cells next day at the final DMSO concentration of 0.5%. Cells were incubated with compounds for 2-3 days, after which medium was removed. Fresh medium containing compounds was added to cells for additional 3-4 days. At day 6 after exposure of compounds, supernatant was collected, the HBsAg immunoassay (microplate-based chemiluminescence immunoassay kits, CLIA, Autobio Diagnosics Co., Zhengzhou, China, Catalog #CL0310-2) was used to determine the level of HBsAg according to manufactory instruction. Dose-response curves were generated and the EC50 value (effective concentrations that achieved 50% inhibitory effect) were determined using XLfit software. In addition, cells were seeded at a density of 5,000 cells/well for determination of cell viability in the presence and absence of compounds by using CellTiter-Glo reagent (Promega).
Consider `CCC1c2ccccc2CCN1c1cnc(-c2ncccn2)nc1` (single isomer, unassigned) [Example 11, 2-([2,2′-Bipyrimidin]-5-yl)-1-ethyl-1,2,3,4-tetrahydroisoquinoline], for which the EC50 was 1400 nM.
For the compound `CCC1c2ccccc2CCN1c1cnc(-c2ncccn2)nc1` (single isomer, unassigned) [Example 12, 2-([2,2′-Bipyrimidin]-5-yl)-1-ethyl-1,2,3,4-tetrahydroisoquinoline], the EC50 was 190 nM.
With `CCC1c2cc(OC)c(F)c(F)c2CCN1c1cnc(-c2ncccn2)nc1` (single isomer, unassigned) [Example 30, 1-Ethyl-5,6-difluoro-7-methoxy-2-(2-pyrimidin-2-ylpyrimidin-5-yl)-3,4-dihydro-1H-isoquinoline] the figure was 130 nM; with `CCC1c2cc(OC)c(F)c(F)c2CCN1c1cnc(-c2ncccn2)nc1` (single isomer, unassigned) [Example 31, 1-Ethyl-5,6-difluoro-7-methoxy-2-(2-pyrimidin-2-ylpyrimidin-5-yl)-3,4-dihydro-1H-isoquinoline], 1200 nM.
With `CCC1c2ccc(F)c(F)c2CCN1c1cnc(-c2ncccn2)nc1` (single isomer, unassigned) [Example 33, 1-Ethyl-5,6-difluoro-2-(2-pyrimidin-2-ylpyrimidin-5-yl)-3,4-dihydro-1H-isoquinoline] the figure was 390 nM.
With `CCC1c2ccc(F)c(F)c2CCN1c1cnc(-c2ncccn2)nc1` (single isomer, unassigned) [Example 34, 1-Ethyl-5,6-difluoro-2-(2-pyrimidin-2-ylpyrimidin-5-yl)-3,4-dihydro-1H-isoquinoline] the figure was 160 nM; with `CC1c2ccc(F)c(F)c2CCN1c1ccnc(-c2ncccn2)n1` (single isomer, unassigned) [Example 37, 2-([2,2′-Bipyrimidin]-4-yl)-5,6-difluoro-1-methyl-1,2,3,4-tetrahydroisoquinoline], 310 nM; with `CC1c2ccc(F)c(F)c2CCN1c1ccnc(-c2ncccn2)n1` (single isomer, unassigned) [Example 38, 2-([2,2′-Bipyrimidin]-4-yl)-5,6-difluoro-1-methyl-1,2,3,4-tetrahydroisoquinoline], 1400 nM.
For `CCC1c2ccc(F)c(F)c2CCN1c1ccnc(-c2ncccn2)n1` (single isomer, unassigned) [Example 40, 1-Ethyl-5,6-difluoro-2-(2-pyrimidin-2-ylpyrimidin-4-yl)-3,4-dihydro-1H-isoquinoline], the EC50 was found to be 500 nM.
For the compound `CCC1c2ccc(F)c(F)c2CCN1c1ccnc(-c2ncccn2)n1` (single isomer, unassigned) [Example 41, 1-Ethyl-5,6-difluoro-2-(2-pyrimidin-2-ylpyrimidin-4-yl)-3,4-dihydro-1H-isoquinoline], the EC50 is 2600 nM.
With `CCC1c2c(OC)ccc(F)c2CCN1c1ccnc(-c2ncccn2)n1` (single isomer, unassigned) [Example 43, 1-Ethyl-5-fluoro-8-methoxy-2-(2-pyrimidin-2-ylpyrimidin-4-yl)-3,4-dihydro-1H-isoquinoline] the figure was 60 nM; with `CCC1c2c(OC)ccc(F)c2CCN1c1ccnc(-c2ncccn2)n1` (single isomer, unassigned) [Example 44, 1-Ethyl-5-fluoro-8-methoxy-2-(2-pyrimidin-2-ylpyrimidin-4-yl)-3,4-dihydro-1H-isoquinoline], 7000 nM.
`CCC1c2cc(F)c(F)cc2CN1c1ccnc(-c2ncccn2)n1` (single isomer, unassigned) [Example 49, 2-([2,2′-Bipyrimidin]-4-yl)-1-ethyl-5,6-difluoroisoindoline]: the EC50 worked out at 44 nM.
With `CCC1c2cc(F)c(F)cc2CN1c1ccnc(-c2ncccn2)n1` (single isomer, unassigned) [Example 50, 2-([2,2′-Bipyrimidin]-4-yl)-1-ethyl-5,6-difluoroisoindoline] the figure was 400 nM; with `CCC1c2cc(OC)c(OC)cc2CN1c1ccnc(-c2ncccn2)n1` (single isomer, unassigned) [Example 56, 2-([2,2′-Bipyrimidin]-4-yl)-1-ethyl-5,6-dimethoxyisoindoline], 12 nM.
Then `CCC1c2cc(OC)c(OC)cc2CN1c1ccnc(-c2ncccn2)n1` (single isomer, unassigned) [Example 57, 2-([2,2′-Bipyrimidin]-4-yl)-1-ethyl-5,6-dimethoxyisoindoline], with 76 nM; and `CCC1c2cc(F)c(OC)cc2CN1c1ccnc(-c2ncccn2)n1` (single isomer, unassigned) [Example 64, 2-([2,2′-Bipyrimidin]-4-yl)-1-ethyl-6-fluoro-5-methoxyisoindoline], with 12 nM; and `CCC1c2cc(F)c(OC)cc2CN1c1ccnc(-c2ncccn2)n1` (single isomer, unassigned) [Example 65, 2-([2,2′-Bipyrimidin]-4-yl)-1-ethyl-6-fluoro-5-methoxyisoindoline], with 230 nM.
On to `CCC1c2cc(F)c(OC)cc2CN1c1nc(-c2ncccn2)ncc1-c1ccccc1` (single isomer, unassigned) [Example 66, 1-Ethyl-6-fluoro-5-methoxy-2-(5-phenyl-[2,2′-bipyrimidin]-4-yl)isoindoline], for which the EC50 was found to be 1000 nM.
For `CCC1c2cc(F)c(OC)cc2CN1c1nc(-c2ncccn2)ncc1-c1ccccc1` (single isomer, unassigned) [Example 67, 1-Ethyl-6-fluoro-5-methoxy-2-(5-phenyl-[2,2′-bipyrimidin]-4-yl)isoindoline], the EC50 is 18000 nM.
Then `CCC1c2cc(F)c(OC)cc2CN1c1nc(-c2ncccn2)ncc1C` (single isomer, unassigned) [Example 68, 1-Ethyl-6-fluoro-5-methoxy-2-(5-methyl-[2,2′-bipyrimidin]-4-yl)isoindoline], with 2 nM; and `CCC1c2cc(F)c(OC)cc2CN1c1nc(-c2ncccn2)ncc1C` (single isomer, unassigned) [Example 69, 1-Ethyl-6-fluoro-5-methoxy-2-(5-methyl-[2,2′-bipyrimidin]-4-yl)isoindoline], with 59 nM.
As for `CCC1c2cc(F)c(OC)cc2CN1c1nc(-c2ncccn2)ncc1F` (single isomer, unassigned) [Example 71, 1-Ethyl-6-fluoro-2-(5-fluoro-[2,2′-bipyrimidin]-4-yl)-5-methoxyisoindoline], the half-maximal effective concentration (EC50) came out at 3 nM.
For the compound `CCC1c2cc(F)c(OC)cc2CN1c1nc(-c2ncccn2)ncc1F` (single isomer, unassigned) [Example 72, 1-Ethyl-6-fluoro-2-(5-fluoro-[2,2′-bipyrimidin]-4-yl)-5-methoxyisoindoline], the EC50 was 67 nM.
Regarding `CCC1c2cc(F)c(OC)cc2CN1c1nc(-c2ncccn2)ncc1OC` (single isomer, unassigned) [Example 73, 1-Ethyl-6-fluoro-5-methoxy-2-(5-methoxy-[2,2′-bipyrimidin]-4-yl)isoindoline], the EC50 worked out at 1000 nM.
Turning to `CCC1c2cc(F)c(OC)cc2CN1c1nc(-c2ncccn2)ncc1OC` (single isomer, unassigned) [Example 74, 1-Ethyl-6-fluoro-5-methoxy-2-(5-methoxy-[2,2′-bipyrimidin]-4-yl)isoindoline], the EC50 was found to be 8 nM.
